The text below walks through data of US20250295656A1, “COMBINATION OF LURBINECTEDIN AND IMMUNE CHECKPOINT INHIBITORS” (priority 2020, published 2025).

Test [1] has as its system MCA205 fibrosarcoma. As to the kind of experiment: Anticancer vaccination with lurbinectedin-treated dying MCA205 cells and rechallenge. Format: in vivo, immunocompetent C57BL/6 mice. To be noted: MCA205 cells treated with 1 μM lurbinectedin injected s.c., rechallenge with live cells one week later. On the procedure: MCA205 cells treated for 20 h with 1 μM lurbinectedin were inoculated subcutaneously (s.c.) into immunocompetent C57BL/6 mice, which were rechallenged 7 days later s.c. with living cells of the same type. The tumour growth was measured until endpoints were reached and overall survival was evaluated regularly for the following 30 days (n=6). (*p<. 01, two-tailed Student's t test, compared to all other groups). Data were analyzed with TumGrowth.
(§1) In order to assess the capacity of lurbinectedin to stimulate anticancer immunity in a monotherapeutic approach and to convert tumour cells into a therapeutic vaccine we exposed murine fibrosarcoma cells to the drug in vitro (in conditions previously established to induce a sufficient amplitude of cell death) and then injected the dying cancer cells into syngeneic immunocompetent mice. […] Next we evaluated the effect of lurbinectedin on established cancers growing on immunocompetent or immunodeficient mice. […]
(§2) Six- to eight-week-old female wild-type C57BL/6 and nu/nu mice were obtained from Envigo France (Huntingdon, UK) and were kept in the animal facility at the Gustave Roussy Campus Cancer in a specific pathogen-free and temperature-controlled environment with 12 h day, 12 h night cycles and received food and water ad libitum. […] Animals were monitored and tumour growth documented regularly until end-points were reached. […]

The test system of test [2] is MCA205 tumours. As to the kind of experiment: Established MCA205 tumours in immunocompetent mice. Format: in vivo, immunocompetent C57BL/6 mice. The following applies: immunocompetent C57BL/6, 0.18 mg/kg i.v. day 1, 7 and 14. On the procedure:
Live MCA205 cells were injected subcutaneously (s.c.) into immunocompetent C57BL/6 mice or immunodeficient nu/nu mice as depicted in the scheme in (a) When tumours became palpable, mice were intravenously (i.v.) injected with […] lurbinectedin (on day 1, 7 and 14). Tumour growth was assessed regularly for the following 30 days. Data is depicted as tumour growth curves (b,d) and overall survival plots (c,e). Data were analyzed with TumGrowth.
as §1, §2

In the case of `COc1ccc2[nH]c3c(c2c1)CCN[C@]31CS[C@@H]2c3c(OC(C)=O)c(C)c4c(c3[C@H](COC1=O)N1[C@@H]2[C@H]2c3c(cc(C)c(OC)c3O)C[C@@H]([C@@H]1O)N2C)OCO4` [lurbinectedin], in test [1], the “overall survival after rechallenge” value is given as “increase”. The “tumour growth after rechallenge” value in test [1] (p=0.0094) is on record as “significantly reduced”. Further, the overall survival result in test [2] is recorded as “increased”. Besides, the tumour growth entry in test [2] (vs control animals, p<0.0001) is on record as “significantly reduced”.
